Assay results taken from ChEMBL document CHEMBL1142766, “4-Fluorosulfonylpiperidines: selective 5-HT2A ligands for the treatment of insomnia” (Bioorg Med Chem Lett, 2005).

What was measured:
[1] = biological target: 5-hydroxytryptamine receptor 2A (Homo sapiens, UniProt P28223); test: Binding affinity against human 5-hydroxytryptamine 2A receptor
D(2) dopamine receptor = D(2) dopamine receptor (Homo sapiens, UniProt P14416); test: Binding affinity against human Dopamine receptor D2
[2] = biological target: Voltage-gated inwardly rectifying potassium channel KCNH2 (Homo sapiens, UniProt Q12809); test: Binding affinity against human IKr channel
Sequence of Voltage-gated inwardly rectifying potassium channel KCNH2 (Q12809 whole entry): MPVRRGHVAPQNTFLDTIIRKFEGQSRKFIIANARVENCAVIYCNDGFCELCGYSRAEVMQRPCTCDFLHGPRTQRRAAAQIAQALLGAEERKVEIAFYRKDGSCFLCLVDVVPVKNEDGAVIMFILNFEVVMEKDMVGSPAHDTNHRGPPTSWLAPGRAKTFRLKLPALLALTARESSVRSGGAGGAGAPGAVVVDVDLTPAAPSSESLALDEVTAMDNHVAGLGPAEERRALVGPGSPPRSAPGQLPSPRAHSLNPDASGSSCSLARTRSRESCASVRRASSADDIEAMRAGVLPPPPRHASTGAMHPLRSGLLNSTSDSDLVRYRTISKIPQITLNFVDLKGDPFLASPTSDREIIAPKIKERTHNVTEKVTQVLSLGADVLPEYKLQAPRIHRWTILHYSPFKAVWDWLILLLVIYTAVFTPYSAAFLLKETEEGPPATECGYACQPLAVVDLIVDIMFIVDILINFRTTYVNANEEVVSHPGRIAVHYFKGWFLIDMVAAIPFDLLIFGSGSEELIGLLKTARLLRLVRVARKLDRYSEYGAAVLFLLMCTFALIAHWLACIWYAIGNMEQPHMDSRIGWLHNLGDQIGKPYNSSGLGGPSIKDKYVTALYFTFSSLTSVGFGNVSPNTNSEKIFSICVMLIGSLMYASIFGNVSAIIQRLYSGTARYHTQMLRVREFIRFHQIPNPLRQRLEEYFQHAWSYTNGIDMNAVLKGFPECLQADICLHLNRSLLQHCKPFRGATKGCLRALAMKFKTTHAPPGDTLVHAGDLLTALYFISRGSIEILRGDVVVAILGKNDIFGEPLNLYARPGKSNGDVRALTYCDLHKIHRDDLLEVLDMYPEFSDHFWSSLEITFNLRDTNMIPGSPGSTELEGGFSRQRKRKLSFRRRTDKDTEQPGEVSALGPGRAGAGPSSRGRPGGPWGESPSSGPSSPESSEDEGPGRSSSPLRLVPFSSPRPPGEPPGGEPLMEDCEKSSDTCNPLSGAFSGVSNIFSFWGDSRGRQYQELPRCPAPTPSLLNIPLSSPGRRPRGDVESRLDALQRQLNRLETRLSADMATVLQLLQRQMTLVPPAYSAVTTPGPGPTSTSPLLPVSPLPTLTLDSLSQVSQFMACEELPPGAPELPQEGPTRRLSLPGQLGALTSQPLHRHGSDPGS

[3] = biological target: T1, 5-hydroxytryptamine receptor 2C (Homo sapiens, UniProt P28335)
T1 sequence (P28335 whole entry): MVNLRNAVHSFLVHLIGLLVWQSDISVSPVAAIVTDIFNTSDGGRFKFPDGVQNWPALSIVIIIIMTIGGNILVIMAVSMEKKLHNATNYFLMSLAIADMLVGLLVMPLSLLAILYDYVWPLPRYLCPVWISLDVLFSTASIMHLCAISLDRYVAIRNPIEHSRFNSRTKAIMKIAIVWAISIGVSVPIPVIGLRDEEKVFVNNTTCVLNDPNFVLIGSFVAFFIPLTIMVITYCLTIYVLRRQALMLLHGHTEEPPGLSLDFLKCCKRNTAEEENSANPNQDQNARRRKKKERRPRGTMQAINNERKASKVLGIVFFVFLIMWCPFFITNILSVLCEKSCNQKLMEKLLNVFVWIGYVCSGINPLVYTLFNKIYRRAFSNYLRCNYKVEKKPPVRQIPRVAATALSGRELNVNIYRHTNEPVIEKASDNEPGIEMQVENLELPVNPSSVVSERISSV
Description: Binding affinity against human 5-hydroxytryptamine 2c receptor

[4] = biological target: 5-hydroxytryptamine receptor 2A (Rattus norvegicus, UniProt P14842); test: Binding affinity against rat 5-hydroxytryptamine 2A receptor
Sequence of 5-hydroxytryptamine receptor 2A (Rattus norvegicus, UniProt P14842) (P14842 whole entry): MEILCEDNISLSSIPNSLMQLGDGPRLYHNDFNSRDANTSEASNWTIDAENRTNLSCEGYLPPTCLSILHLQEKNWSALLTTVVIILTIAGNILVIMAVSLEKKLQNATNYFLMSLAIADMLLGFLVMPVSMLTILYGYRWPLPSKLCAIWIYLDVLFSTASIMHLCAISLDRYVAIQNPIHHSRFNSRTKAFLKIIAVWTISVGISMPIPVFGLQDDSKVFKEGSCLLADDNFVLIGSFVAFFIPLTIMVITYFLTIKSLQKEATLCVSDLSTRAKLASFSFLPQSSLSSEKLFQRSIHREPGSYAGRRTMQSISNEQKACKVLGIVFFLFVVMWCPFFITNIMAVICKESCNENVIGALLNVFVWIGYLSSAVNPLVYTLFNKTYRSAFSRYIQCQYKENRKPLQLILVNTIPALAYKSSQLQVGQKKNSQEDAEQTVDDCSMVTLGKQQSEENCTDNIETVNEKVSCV

[5] = pKa value of the compound; format: physicochemical
[6] = biological target: 5-hydroxytryptamine receptor 2A (Rattus norvegicus) (UniProt P14842); test: In vivo occupancy at rat 5-HT2A receptor at 30 min after dosing at 10 mg/kg per orally; format: functional, organism-based
Sequence of 5-hydroxytryptamine receptor 2A (Rattus norvegicus) (P14842 whole entry): as above

[7] = Bioavailability in rat; format: ADME, organism-based; conditions: in vivo
[8] = Half life period was determined; format: ADME; conditions: rat
[9] = Plasma clearance after i.v. administration in rat; format: ADME, organism-based; conditions: iv, read-out: Clp

Sequence of 5-hydroxytryptamine receptor 2A (Homo sapiens, UniProt P28223) (P28223 whole entry): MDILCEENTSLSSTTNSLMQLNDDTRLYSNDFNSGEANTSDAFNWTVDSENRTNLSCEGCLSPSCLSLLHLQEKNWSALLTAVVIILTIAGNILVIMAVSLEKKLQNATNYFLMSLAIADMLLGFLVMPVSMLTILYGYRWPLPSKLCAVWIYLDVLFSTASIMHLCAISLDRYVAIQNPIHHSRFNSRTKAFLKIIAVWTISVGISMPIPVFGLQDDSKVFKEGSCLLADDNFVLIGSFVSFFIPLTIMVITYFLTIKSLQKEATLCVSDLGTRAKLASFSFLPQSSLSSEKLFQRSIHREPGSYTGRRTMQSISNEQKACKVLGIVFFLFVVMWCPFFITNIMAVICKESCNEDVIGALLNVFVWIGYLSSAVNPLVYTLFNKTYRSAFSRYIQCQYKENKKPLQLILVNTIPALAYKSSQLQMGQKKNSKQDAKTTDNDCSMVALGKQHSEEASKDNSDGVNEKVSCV
Sequence of D(2) dopamine receptor (P14416 whole entry): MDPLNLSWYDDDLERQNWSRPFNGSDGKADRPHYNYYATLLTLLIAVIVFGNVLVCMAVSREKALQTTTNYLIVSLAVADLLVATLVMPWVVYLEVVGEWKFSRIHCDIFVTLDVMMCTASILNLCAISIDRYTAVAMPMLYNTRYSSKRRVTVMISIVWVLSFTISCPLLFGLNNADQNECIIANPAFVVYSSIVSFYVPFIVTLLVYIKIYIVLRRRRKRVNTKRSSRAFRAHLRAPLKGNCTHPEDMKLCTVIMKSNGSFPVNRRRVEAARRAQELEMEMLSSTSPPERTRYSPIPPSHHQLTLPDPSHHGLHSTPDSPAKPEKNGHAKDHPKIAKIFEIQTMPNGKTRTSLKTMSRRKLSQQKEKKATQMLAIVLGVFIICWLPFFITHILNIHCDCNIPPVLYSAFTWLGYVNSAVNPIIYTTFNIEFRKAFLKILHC

Ki [1] | Ki (D(2) dopamine receptor) | Ki [3] | Ki [4] | pKa [5] | Activity [6] | Compound | Ki [2] | bioavailability [7] | half-life [8] | clearance [9]
0.00068 µM | > 1 µM | 0.049 µM | – | – | – | O=S(=O)(c1ccccc1)C1(F)CCN(CCc2ccc(F)cc2F)CC1 | 2.45 µM | – | – | –
0.00032 µM | 0.266 µM | 0.014 µM | – | – | – | O=S(=O)(c1ccccc1F)C1(F)CCN(CCc2ccc(F)cc2F)CC1 | 0.398 µM | – | – | –
0.002 µM | > 2 µM | > 4 µM | 0.0016 µM | – | 37 | O=S(=O)(c1ccc(-n2cccn2)cc1)C1(F)CCN(CCc2ccc(F)cc2F)CC1 | > 9 µM | – | – | –
0.0003 µM | 0.791 µM | 0.049 µM | – | – | – | O=S(=O)(c1cccc(F)c1)C1(F)CCN(CCc2ccc(F)cc2F)CC1 | – | – | – | –
0.0027 µM | 0.863 µM | 1.49 µM | 0.00133 µM | 6.4 | 80 | N#Cc1ccc(S(=O)(=O)C2(F)CCN(CCc3ccc(F)cc3F)CC2)cc1 | 2.7 µM | – | – | –
0.001 µM | > 2 µM | 0.844 µM | 0.0003 µM | – | 49 | O=S(=O)(c1ccc(N2CCC2)cc1)C1(F)CCN(CCc2ccc(F)cc2F)CC1 | – | – | – | –
0.00064 µM | > 1 µM | – | – | – | – | O=S(=O)(c1ccc(Cl)cc1)C1(F)CCN(CCc2ccc(F)cc2F)CC1 | – | – | – | –

Second part, the compound before the results:

Compound | Ki [1] | Ki (D(2) dopamine receptor) | Ki [3] | Ki [4] | pKa [5] | Activity [6] | Ki [2] | bioavailability [7] | half-life [8] | clearance [9]
O=C(CN1CCC(S(=O)(=O)c2ccccc2)CC1)c1ccc(F)cc1F | 0.0024 µM | > 1.5 µM | 0.13 µM | 0.00051 µM | 6.3 | – | 6.8 µM | – | – | –
O=S(=O)(c1ccc(-n2ccnn2)cc1)C1(F)CCN(CCc2ccc(F)cc2F)CC1 | 0.00066 µM | > 2 µM | > 4 µM | – | – | 62 | > 9 µM | – | – | –
O=S(=O)(c1ccc(F)cc1)C1(F)CCN(CCc2ccc(F)cc2F)CC1 | 0.00039 µM | 0.313 µM | 0.176 µM | 0.00063 µM | 6.3 | 98% | 5.56 µM | 51% | 3.8 h | 69 mL/min
O=S(=O)(c1ccccc1)C1CCN(CCc2ccc(F)cc2F)CC1 | – | – | – | – | 7.3 | – | – | – | – | –
O=S(=O)(c1ccc(F)cc1)C1CCN(CCc2ccc(F)cc2F)CC1 | – | – | – | – | 7.2 | – | – | – | – | –
